Columns and labels:
HIV = details: cited from earlier work
Recombinant MDH [1] = biological target: T1, Recombinant MDH (Apium graveolens, UniProt Q38707); test: Relative reaction rates of substrates with recombinantly expressed MDH (NADH measured spectrophotometrically); assay type: biochemical; details: MDH expressed recombinantly; D-mannitol = 100%
T1 construct: An MDH gene was synthetically constructed for expression E. coli; made in house; host or cells: E. coli BL21, pTTQ18 plasmid
Protocol: (§1) Many different variables were studied to maximize the expression and activity of MDH. MDH activity was monitored with the conversion of D-mannitol to D-mannose in the presence of NAD. The conversion was monitored spectrophotometrically by measuring the increasing concentration of NADH, the cofactor product of the oxidation of mannitol to mannose. For a given experiment, lysate protein concentrations were normalized.
(§2) Substrate specificity of the recombinant MDH was also tested and compared with the published data on the natively expressed MDH. Recombinant expression of MDH in E. coli could cause subtle modifications to the tertiary structure of MDH and modify the substrate specificity. Several known substrates of the MDH were tested.[16]

[2] = tested on: E. coli production strain with inactive PEP-dependent phosphotransferase system; test: Polyol conversion in shake flasks by mutagenized PTS-inactive E. coli MDH strain, HPLC; assay type: cell-based
Text: This can be accomplished by PCR-based genetic deletion of phosphocarrier protein ptsH, phosphotransferase system enzyme I ptsI, and the glucose specific enzyme IIA PTS component crr, but could be accomplished by other genetic manipulation including deletion of the polyol specific PTS type II genes or other genetic or biochemical manipulation known to those skilled in the art. These mutations render the production strain unable to metabolize or phosphorylatively uptake D-mannitol, galactitol, or D-sorbitol.
Flasks contained LB, ampicillin, 250 μM ZnCl2, and 40 g/L galactitol, D-mannitol, or D-sorbitol. Cells were induced with 0.5 mM IPTG after 4 hrs growth at 37° C. and the temperature was reduced to 25° C. After 6 days of incubation, D-mannose had been created from D-mannitol with 12% conversion. D-sorbitol conversion to L-gulose ceased after 7 days with a final conversion of 12%. Following 14 days of reaction, L-galactose had been produced from galactitol with 40% conversion. The final products were characterized by non-chiral HPLC in comparison to their D-counterparts. Optical rotation was obtained by polarimetry and used to verify stereochemistry. This resulting strain is further capable of converting D-arabitol to D-lyxose at 24% conversion.

Native MDH = biological target: T2, Native MDH (Apium graveolens, UniProt Q38707); details: MDH expressed natively; D-mannitol = 100%; published data; cited from earlier work
T2 construct: compared with the published data on the natively expressed MDH; host or cells: celery (Apium graveolens), native expression

[3] = tested on: recombinant E. coli MDH strain; test: Polyol bioconversion by the recombinant E. coli MDH strain, HPLC; assay type: cell-based; details: strain with active phosphotransferase uptake system
Text: It was hypothesized that the lack of conversion was due to the phosphotransferase uptake system for D-mannitol, galactitol, and D-sorbitol, which phosphorylates these polyols upon uptake.

Recombinant MDH [4] = biological target: T3, Recombinant MDH (Apium graveolens, UniProt Q38707, C47S/T120I); test: Relative reaction rates of substrates with recombinantly expressed MDH (NADH measured spectrophotometrically); assay type: biochemical; details: recombinant MDH
T3 construct: An MDH gene was synthetically constructed for expression E. coli; made in house; host or cells: E. coli BL21, pTTQ18 plasmid
Protocol: as §1, §2

[5] = biological target: T4, Apium gravelons mannitol-1-dehydrogenase (MDH) (Apium graveolens, UniProt Q38707, C47S/T120I); test: MDH activity in lysate with added divalent metal salts; assay type: biochemical
T4 construct: An MDH gene was synthetically constructed for expression E. coli; made in house; host or cells: E. coli BL21, pTTQ18 plasmid
Protocol: While not explicitly described in the literature, Apium gravelons mannitol-1-dehydrogenase (MDH) requires divalent metal ions, particularly Zn^2+ ions, for activity. The presence of ZnSO4 increases MDH activity. Cells expressing MDH were grown in rich media were harvested and lysed with BUGBUSTER® protein extraction reagent, Novagen, Madison, Wis. MDH activity was then tested with increasing concentrations of ZnSO4 in the presence of D-mannitol and NAD cofactor at pH 9.0. See, FIG. 11.

[6] = tested on: recombinant E. coli expressing MDH; test: Effect of Zn2+ on L-ribose production from ribitol; assay type: cell-based; details: LB, 100 g/L ribitol, 0.5% glycerol
Protocol: The cultures are analyzed for production of L-ribose vs. time. The optimum production of L-ribose occurs between 0.15 and 1.5 mM Zn^2+ with the best conversion at 0.5 mM ZnCl2 (FIG. 14).

[7] = pH profile of MDH oxidation activity; assay type: biochemical; details: relative to maximum at pH 9.0
Protocol: as §1
The pH profile for MDH for the oxidation reactions was also tested. […] This range could be beneficial for in vitro bioconversions with enzymatic NAD cofactor recycling methods. Increasing the activity of MDH at neutral pH could improve in vivo fermentation activity as the interior of the E. coli cell has a pH lower than 9.0.[21]

[8] = Thermostability of recombinant MDH in lysates; assay type: physicochemical; details: after four hours of incubation at various temperatures, except at 25° C.
Protocol: The thermostability of recombinant MDH was also tested. Lysates containing MDH were incubated at various temperatures. Aliquots of MDH were removed at various times to measure MDH activity using the assay described above. See, FIG. 13.

[9] = MDH thermal stability: incubation at 43° C. followed by kinetic assay; assay type: physicochemical; details: relative to WT
[10] = Fermentation of ribitol to L-ribose with wild-type MDH in E. coli; assay type: cell-based
Protocol: Because of the successes with the expression of MDH in E. coli, additional experiments were performed to determine the feasibility of the MDH system to produce L-ribose with MDH enzyme. Initial fermentation experiments were performed in shake-flasks using rich media and varying concentrations of ribitol. With 2% ribitol (w/v), the MDH-expressing strain converted approximately 25% of the ribitol to L-ribose with 48 hrs. The goal for this strain would be to have >90% conversion within 24-48 hrs.
One goal for the fermentation would be the synthesis of 100-150 g·L^−1 of L-ribose in 24-48 hrs with >90% conversion efficiency from ribitol. Initial fermentation results with the wild-type MDH show a productivity of approximately 35 g·L^−1 in 48 hrs with 30% ribitol converted.

In the case of `Nc1ccn(C2CSC(CO)O2)c(=O)n1` (racemic) [BCH-189, (±)-2,3-dideoxy-3′-thiacytidine], the anti-HIV activity (HIV) is given as “anti-HIV activity”.

For `OC[C@@H](O)C(O)[C@H](O)CO` [D-Arabitol], the “Relative reaction rates, Recombinant MDH” value (Recombinant MDH [1]) is given as 33%, the “conversion of D-arabitol to D-lyxose” value [2] is given as 24% and the “Relative reaction rates, Native MDH” value (Native MDH) is given as 37%.

In the case of `OC[C@@H](O)[C@@H](O)[C@H](O)[C@H](O)CO` [D-Mannitol], the “Relative reaction rates, Recombinant MDH” value (Recombinant MDH [1]) is reported as 100%, the “conversion of polyol to sugar detected by HPLC” value (from here on “conversion of polyol”) [3] is reported as “none was detected” and the “conversion of D-mannitol to D-mannose” value ([2]; 40 g/L polyol, 25° C., after 6 days) is reported as 12%. For the same molecule, the “Relative reaction rates, Native MDH” value (Native MDH) was 100%.

With `OC[C@@H](O)[C@@H](O)[C@H](O)[C@@H](O)CO` [D-Sorbitol] the “Relative reaction rates, Recombinant MDH” value (Recombinant MDH [1]) was 5%, the “conversion of polyol” value [3] was “none was detected” and the “final conversion of D-sorbitol to L-gulose” value ([2]; 40 g/L polyol, 25° C., ceased after 7 days) was 12%. The “Relative reaction rates, Native MDH” value (Native MDH) was 22%.

In the case of `OC[C@@H](O)[C@@H](O)CO` [Erythritol], the “Relative reaction rates, Recombinant MDH” value (Recombinant MDH [1]) is given as 4% and the “Relative reaction rates, Native MDH” value (Native MDH) is given as 16%.

In the case of `C[C@H](O)[C@@H](O)[C@@H](O)[C@H](O)CO` [L-fucitol], the “relative reaction rate, % the rate of D-mannitol” value (Recombinant MDH [4]) is reported as 10.5%.

For `O=S(=O)([O-])[O-].[Ni+2]` [NiSO4], the “inhibition of MDH activity compared to MDH without NiSO4” value ([5]; 0.1 mM NiSO4) was “approximately 50%”.

For `OC[C@@H](O)[C@@H](O)[C@@H](O)CO` [Ribitol], the “Relative reaction rates, Recombinant MDH” value (Recombinant MDH [1]) is given as 50% and the “Relative reaction rates, Native MDH” value (Native MDH) is given as 36%.

For `Nc1ccn([C@@H]2CS[C@H](CO)O2)c(=O)n1` [Strain L-3TC], the “potency compared with the D-form of BCH-189” value (HIV) is given as “more potent”.

For `OC[C@@H](O)[C@H](O)[C@@H](O)CO` [Xylitol], the “Relative reaction rates, Recombinant MDH” value (Recombinant MDH [1]) is listed as 1% and the “Relative reaction rates, Native MDH” value (Native MDH) is listed as 0%.

For `[Cl-].[Cl-].[Zn+2]` [ZnCl2], the “ZnCl2 concentration of best conversion” value [6] was 0.5 mM.

In the case of `O=S(=O)([O-])[O-].[Zn+2]` [Zn^2+], the “concentrations showing inhibition of MDH activity” value ([5]; D-mannitol, NAD, pH 9.0) is reported as “above 1 μM” and the “increase of MDH activity compared to no added zinc” value ([5]; addition of 1 μM Zn2+, D-mannitol, NAD, pH 9.0) is reported as 50%.

For `OC[C@@H](O)[C@H](O)[C@H](O)[C@@H](O)CO` [galactitol], the “conversion of polyol” value [3] was “none was detected” and the “conversion of galactitol to L-galactose” value ([2]; 40 g/L polyol, 25° C., 14 days) was 40%.

B1: MDH: NAD-dependent mannitol-1-dehydrogenase from Apium graveolens, SEQ ID NO:2, wild type, expressed in E. coli (protein)
chain: MAKSSEIEHPVKAFGWAARDTTGLLSPFKFSRRATGEKDVRLKVLFSGVCHSDHHMIHNNWGFTTYPIVPGHEIVGVVTEVGSKVEKVKVGDNVGIGCLVGSCRSCESCCDNRESHCENIIDTYGSIYFDGTMTHGGYSDTMVADEHFILRWPKNLPLDSGAPLLCAGITTYSPLKYYGLDKPGTKIGVVGLGGLGHVAVKMAKAFGAQVTVIDISESKRKEALEKLGADSFLLNSDQEQMKGARSSLDGIIDTVPVNHPLAPLFDLLKPNGKLVMVGAPEKPFELPVFSLLKGRKLLGGTINGGIKETQEMLDFAAKHNITADVEVIPMDYVNTAMERLVKSDVRYRFVIDIANTMRTEESLGA
For B1, the “residual activity at pH 7.0” value [7] was 10%, the “loss of MDH activity on incubation of lysates” value [8] was “Most MDH activity was lost” and the “Ratio T1/2” value [9] was 1.0. The “ribitol converted to L-ribose” value ([10]; 2% ribitol (w/v), shake-flask, 48 hrs) was “approximately 25%”, the ribitol converted ([10]; 48 hrs) was 30% and the “productivity of L-ribose” value ([10]; in 48 hrs, unoptimized E. coli strain) was “approximately 35 g·L^−1”.

— patent US20120021468A1, “PRODUCTION OF L-RIBOSE AND OTHER RARE SUGARS” (ZUCHEM, INC., priority 2008, published 2012)
